According to patent US10544150B2, “NK-3 receptor selective antagonist compounds, pharmaceutical composition and methods for use in NK-3 receptors mediated disorders” (Ogeda SA, priority 2010, dated 2020):

Molecular target: human NK-3 receptor (Homo sapiens (Human), UniProt P29371)
Assay: 3H-SB222200 binding competition assay with human NK-3 receptor
Settings: 3H-SB222200 displacement, CHO cell membranes expressing human NK3 receptor; read-out: Ki range
Method in brief: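 Membranes from CHO cells expressing human NK3 receptor incubated with 5 nM 3H-SB222200 and test compound in HEPES 25 mM/NaCl 0.1M/CaCl2 1 mM/MgCl2 5 mM/BSA 0.5%/saponin 10 μg/ml, pH 7.4. Bound radioligand counted after filtration; Ki calculated, reported in bands (+++ <500 nM to # >5 μM).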

Chain of human NK-3 receptor (P29371 whole entry): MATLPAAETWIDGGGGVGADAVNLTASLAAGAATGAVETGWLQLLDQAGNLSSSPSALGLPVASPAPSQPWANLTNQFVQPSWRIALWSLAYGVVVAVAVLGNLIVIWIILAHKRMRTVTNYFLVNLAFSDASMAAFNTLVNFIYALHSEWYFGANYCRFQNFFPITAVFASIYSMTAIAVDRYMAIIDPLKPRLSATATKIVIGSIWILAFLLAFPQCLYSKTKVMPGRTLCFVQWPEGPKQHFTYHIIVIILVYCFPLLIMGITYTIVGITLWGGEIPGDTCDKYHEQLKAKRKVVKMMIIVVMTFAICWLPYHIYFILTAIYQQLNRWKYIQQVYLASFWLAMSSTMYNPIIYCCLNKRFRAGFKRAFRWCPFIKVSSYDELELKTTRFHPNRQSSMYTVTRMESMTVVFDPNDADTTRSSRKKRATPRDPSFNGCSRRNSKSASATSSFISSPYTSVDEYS

Structure (SMILES)	Ki
O=C(c1ccc(-c2ccc(F)cc2)cc1)N1CCn2c(nnc2-c2csc(CS(=O)(=O)c3ccc(Cl)cc3)n2)C1 [Compound 200, (3-(2-(((4-chlorophenyl)sulfonyl)methyl)thiazol-4-yl)-5,6-dihydro-[1,2,4]triazolo[4,3-a]pyrazin-7(8H)-yl)(4′-fluoro-[1,1′-biphenyl]-4-yl)methanone]	500 to 1000 nM
O=C(c1ccc(-c2ccc(F)cc2)cc1)N1CCn2c(nnc2-c2nc(-c3ccc(F)cc3)no2)C1 [Compound 205, (4′-fluoro-[1,1′-biphenyl]-4-yl)(3-(3-(4-fluorophenyl)-1,2,4-oxadiazol-5-yl)-5,6-dihydro-[1,2,4]triazolo[4,3-a]pyrazin-7(8H)-yl)methanone]	500 to 1000 nM
O=C(c1ccc(F)cc1)N1CCn2c(nnc2-c2csc(-c3cccc(F)c3)n2)C1 [Compound 206, (4-fluorophenyl)(3-(2-(3-fluorophenyl)thiazol-4-yl)-5,6-dihydro-[1,2,4]triazolo[4,3-a]pyrazin-7(8H)-yl)methanone]	1000 to 5000 nM
CC(C)c1nc(-c2nnc3n2CCN(C(=O)c2ccc(F)cc2)C3)cs1 [Compound 208, (4-fluorophenyl)(3-(2-isopropylthiazol-4-yl)-5,6-dihydro-[1,2,4]triazolo[4,3-a]pyrazin-7(8H)-yl)methanone]	1000 to 5000 nM
CC1c2nnc(-c3nc(-c4ccc(F)cc4)no3)n2CCN1C(=O)c1ccc(-c2cccs2)cc1 (stereo not shown) [Compound 209, (3-(3-(4-fluorophenyl)-1,2,4-oxadiazol-5-yl)-8-methyl-5,6-dihydro-[1,2,4]triazolo[4,3-a]pyrazin-7(8H)-yl)(4-(thiophen-2-yl)phenyl)methanone]	< 500 nM
O=C(c1ccc(F)cc1)N1CCn2c(nnc2-c2nc(-c3ccccc3)ns2)C1 [Compound 212, (4-fluorophenyl)(3-(3-phenyl-1,2,4-thiadiazol-5-yl)-5,6-dihydro-[1,2,4]triazolo[4,3-a]pyrazin-7(8H)-yl)methanone]	< 500 nM
Cc1ccc(-c2ccc(C(=O)N3CCn4c(-c5csc(-c6ccc(F)cc6)n5)nnc4C3C)cc2)s1 (stereo not shown) [Compound 215, (3-(2-(4-fluorophenyl)thiazol-4-yl)-8-methyl-5,6-dihydro-[1,2,4]triazolo[4,3-a]pyrazin-7(8H)-yl)(4-(5-methylthiophen-2-yl)phenyl)methanone]	< 500 nM
CC1c2nnc(-c3csc(-c4ccc(F)cc4)n3)n2CCN1C(=O)c1ccc(C#N)cc1 (stereo not shown) [Compound 216, 4-(3-(2-(4-fluorophenyl)thiazol-4-yl)-8-methyl-5,6,7,8-tetrahydro-[1,2,4]triazolo[4,3-a]pyrazine-7-carbonyl)benzonitrile]	< 500 nM
O=C(c1ccc(-c2ccccc2)cc1)N1CCn2c(nnc2-c2nc(-c3ccccc3)no2)C1 [Compound 217, [1,1′-biphenyl]-4-yl(3-(3-phenyl-1,2,4-oxadiazol-5-yl)-5,6-dihydro-[1,2,4]triazolo[4,3-a]pyrazin-7(8H)-yl)methanone]	< 500 nM
O=C(c1ccc(F)cc1)N1CCn2c(nnc2-c2csc(-c3ccncc3)n2)C1 [Compound 218, (4-fluorophenyl)(3-(2-(pyridin-4-yl)thiazol-4-yl)-5,6-dihydro-[1,2,4]triazolo[4,3-a]pyrazin-7(8H)-yl)methanone]	1000 to 5000 nM
Cn1nc(-c2ccccc2)cc1-c1nnc2n1CCN(C(=O)c1ccc(F)cc1)C2 [Compound 225, (4-fluorophenyl)(3-(1-methyl-3-phenyl-1H-pyrazol-5-yl)-5,6-dihydro-[1,2,4]triazolo[4,3-a]pyrazin-7(8H)-yl)methanone]	1000 to 5000 nM
C[C@H]1c2nnc(-c3csc(N4CCOCC4)n3)n2CCN1C(=O)c1ccc(-c2cccs2)cc1 [Compound 227, (S)-(8-methyl-3-(2-morpholinothiazol-4-yl)-5,6-dihydro-[1,2,4]triazolo[4,3-a]pyrazin-7(8H)-yl)(4-(thiophen-2-yl)phenyl)methanone]	500 to 1000 nM
O=C(c1ccccc1)N1CCn2c(nnc2-c2ccccn2)C1 [Compound 231, phenyl(3-(pyridin-2-yl)-5,6-dihydro-[1,2,4]triazolo[4,3-a]pyrazin-7(8H)-yl)methanone]	1000 to 5000 nM
Cc1ccc(C(=O)N2CCn3c(nnc3-c3ccccn3)C2)cc1 [Compound 232, (3-(pyridin-2-yl)-5,6-dihydro-[1,2,4]triazolo[4,3-a]pyrazin-7(8H)-yl)(p-tolyl)methanone]	1000 to 5000 nM

Results, then the compound that gave them:

Ki	Structure (SMILES)
1000 to 5000 nM	O=C(c1ccc(-c2ccccc2)cc1)N1CCn2c(nnc2-c2csc(CS(=O)(=O)c3ccc(Cl)cc3)n2)C1 [Compound 199, [1,1′-biphenyl]-4-yl(3-(2-(((4-chlorophenyl)sulfonyl)methyl)thiazol-4-yl)-5,6-dihydro-[1,2,4]triazolo[4,3-a]pyrazin-7(8H)-yl)methanone]
1000 to 5000 nM	COc1ccccc1-c1nc(-c2nnc3n2CCN(C(=O)c2ccc(F)cc2)C3)cs1 [Compound 201, (4-fluorophenyl)(3-(2-(2-methoxyphenyl)thiazol-4-yl)-5,6-dihydro-[1,2,4]triazolo[4,3-a]pyrazin-7(8H)-yl)methanone]
< 500 nM	COc1ccccc1-c1nc(-c2nnc3n2CCN(C(=O)c2ccc(-c4cccs4)cc2)C3)cs1 [Compound 202, (3-(2-(2-methoxyphenyl)thiazol-4-yl)-5,6-dihydro-[1,2,4]triazolo[4,3-a]pyrazin-7(8H)-yl)(4-(thiophen-2-yl)phenyl)methanone]
500 to 1000 nM	COc1ccccc1-c1nc(-c2nnc3n2CCN(C(=O)c2ccc(-c4ccccc4)cc2)C3)cs1 [Compound 203, [1,1′-biphenyl]-4-yl(3-(2-(2-methoxyphenyl)thiazol-4-yl)-5,6-dihydro-[1,2,4]triazolo[4,3-a]pyrazin-7(8H)-yl)methanone]
< 500 nM	O=C(c1ccc(-c2ccccc2)cc1)N1CCn2c(nnc2-c2nc(-c3ccc(F)cc3)no2)C1 [Compound 204, [1,1′-biphenyl]-4-yl(3-(3-(4-fluorophenyl)-1,2,4-oxadiazol-5-yl)-5,6-dihydro-[1,2,4]triazolo[4,3-a]pyrazin-7(8H)-yl)methanone]
< 500 nM	O=C(c1ccc(-c2cccs2)cc1)N1CCn2c(nnc2-c2csc(-c3cccc(F)c3)n2)C1 [Compound 207, (3-(2-(3-fluorophenyl)thiazol-4-yl)-5,6-dihydro-[1,2,4]triazolo[4,3-a]pyrazin-7(8H)-yl)(4-(thiophen-2-yl)phenyl)methanone]
< 500 nM	O=C(c1ccc(-c2cccs2)cc1)N1CCn2c(nnc2-c2nc(-c3ccccc3)ns2)C1 [Compound 211, (3-(3-phenyl-1,2,4-thiadiazol-5-yl)-5,6-dihydro-[1,2,4]triazolo[4,3-a]pyrazin-7(8H)-yl)(4-(thiophen-2-yl)phenyl)methanone]
< 500 nM	O=C(c1ccc(-c2cccs2)cc1)N1CCn2c(nnc2-c2csc(-c3ccc4ccccc4n3)n2)C1 [Compound 219, (3-(2-(quinolin-2-yl)thiazol-4-yl)-5,6-dihydro-[1,2,4]triazolo[4,3-a]pyrazin-7(8H)-yl)(4-(thiophen-2-yl)phenyl)methanone]
< 500 nM	Cn1nc(-c2ccccc2)cc1-c1nnc2n1CCN(C(=O)c1ccc(-c3cccs3)cc1)C2 [Compound 220, (3-(1-methyl-3-phenyl-1H-pyrazol-5-yl)-5,6-dihydro-[1,2,4]triazolo[4,3-a]pyrazin-7(8H)-yl)(4-(thiophen-2-yl)phenyl)methanone]
500 to 1000 nM	CN(C)c1ccc(-c2nc(-c3nnc4n3CCN(C(=O)c3ccc(F)cc3)C4)cs2)cc1 [Compound 221, (3-(2-(4-(dimethylamino)phenyl)thiazol-4-yl)-5,6-dihydro-[1,2,4]triazolo[4,3-a]pyrazin-7(8H)-yl)(4-fluorophenyl)methanone]
< 500 nM	Cn1nc(-c2nnc3n2CCN(C(=O)c2ccc(-c4cccs4)cc2)C3)cc1-c1ccccc1 [Compound 222, (3-(1-methyl-5-phenyl-1H-pyrazol-3-yl)-5,6-dihydro-[1,2,4]triazolo[4,3-a]pyrazin-7(8H)-yl)(4-(thiophen-2-yl)phenyl)methanone]
< 500 nM	O=C(c1ccc(-c2ccc(F)cc2)cc1)N1CCn2c(nnc2-c2nc(-c3ccccc3)no2)C1 [Compound 223, (4′-fluoro-[1,1′-biphenyl]-4-yl)(3-(3-phenyl-1,2,4-oxadiazol-5-yl)-5,6-dihydro-[1,2,4]triazolo[4,3-a]pyrazin-7(8H)-yl)methanone]
< 500 nM	O=C(c1ccc(-c2cccs2)cc1)N1CCn2c(nnc2-c2csc(-c3ccccn3)n2)C1 [Compound 224, (3-(2-(pyridin-2-yl)thiazol-4-yl)-5,6-dihydro-[1,2,4]triazolo[4,3-a]pyrazin-7(8H)-yl)(4-(thiophen-2-yl)phenyl)methanone]
> 5000 nM	O=C(c1ccc(-c2cccs2)cc1)N1CCn2c(nnc2-c2csc(-c3ncccn3)n2)C1 [Compound 226, (3-(2-(pyrimidin-2-yl)thiazol-4-yl)-5,6-dihydro-[1,2,4]triazolo[4,3-a]pyrazin-7(8H)-yl)(4-(thiophen-2-yl)phenyl)methanone]
< 500 nM	O=C(c1ccc(-c2cccs2)cc1)N1CCn2c(nnc2-c2csc(-c3ccncc3)n2)C1 [Compound 228, (3-(2-(pyridin-4-yl)thiazol-4-yl)-5,6-dihydro-[1,2,4]triazolo[4,3-a]pyrazin-7(8H)-yl)(4-(thiophen-2-yl)phenyl)methanone]
< 500 nM	CN(C)c1ccc(-c2nc(-c3nnc4n3CCN(C(=O)c3ccc(-c5cccs5)cc3)C4)cs2)cc1 [Compound 229, (3-(2-(4-(dimethylamino)phenyl)thiazol-4-yl)-5,6-dihydro-[1,2,4]triazolo[4,3-a]pyrazin-7(8H)-yl)(4-(thiophen-2-yl)phenyl)methanone]
1000 to 5000 nM	O=C(c1ccc(F)cc1)N1CCn2c(nnc2-c2csc(-c3ccccn3)n2)C1 [Compound 230, (4-fluorophenyl)(3-(2-(pyridin-2-yl)thiazol-4-yl)-5,6-dihydro-[1,2,4]triazolo[4,3-a]pyrazin-7(8H)-yl)methanone]
